Data reported in article PMC5421785, “Citrullination only infrequently impacts peptide binding to HLA class II MHC” (PLoS ONE, 2017).
Like-named read-outs stand apart in the source and are kept apart here. Square brackets hold non-standard residues; d marks the D form. Peptide text beside a SMILES is read from it. Cit = NC(=O)NCCC[C@H](N)C(=O)O

Assays:
[1] = biological target: T1, HLA-DRB1*04:01 (Homo sapiens, UniProt P01903+P01911, A100K/A169T/F76Y/I96L/K127E/L162R/M171V/N62H/P40V/Q125Y/R42H/S133A/S149N/S66Y/V115G/V209L/W38E); test: HLA class II peptide binding, inhibition of radiolabeled peptide binding to purified MHC
T1 construct: EBV transformed homozygous cell lines were used as sources of MHC molecules; endogenous in cells; host or cells: EBV transformed homozygous cell lines

[2] = biological target: T2, HLA-DRB1*01:01 (Homo sapiens, UniProt P01903+P01911, A100R/D57E/F55L/F60I/F76Y/I96L/L162R/M171V/P40L/Q125E/R42F/V115G/Y59C); test: as above
T2 construct: EBV transformed homozygous cell lines were used as sources of MHC molecules; endogenous in cells; host or cells: EBV transformed homozygous cell lines

[3] = citrullinated 15-mer peptide (X = citrulline), purified HLA-DRB1*04:01, read-out: DRB1*04:01 binding capacity, Cit peptide (IC50 nM)
[4] = citrullinated 15-mer peptide (X = citrulline), purified HLA-DRB1*01:01, read-out: DRB1*01:01 binding capacity, Cit peptide (IC50 nM)
[5] = citrullinated 15-mer (X), purified MHC, inhibition of radiolabeled peptide binding, dash = IC50 >40,000 nM, read-out: DRB1*04:01 binding capacity, Cit peptide (IC50 nM)
[6] = citrullinated 15-mer (X), purified MHC, inhibition of radiolabeled peptide binding, dash = IC50 >40,000 nM, read-out: DRB1*01:01 binding capacity, Cit peptide (IC50 nM)
[7] = ratio of WT IC50 to Cit IC50, >1 = citrullination increases binding

Row | IC50 [2, 4] | IC50 [1, 5] | IC50 [2, 6] | also measured | Structure (SMILES)
1 | – | – | – | IC50 ([1]; citrullinated peptide as listed (X at Cit position), read-out: DRB1*04:01 binding capacity Cit peptide (IC50 nM)): 1060 nM; IC50 ([2]; citrullinated peptide as listed (X at Cit position), read-out: DRB1*01:01 binding capacity Cit peptide (IC50 nM)): 65 nM | CSCC[C@H](NC(=O)[C@H](CCC(N)=O)NC(=O)[C@@H](NC(=O)[C@H](CC(N)=O)NC(=O)[C@H](C)N)C(C)C)C(=O)N[C@H](C(=O)N[C@@H](Cc1ccccc1)C(=O)N[C@@H](CC(C)C)C(=O)N[C@@H](CCCNC(N)=O)C(=O)N[C@@H](CC(C)C)C(=O)N[C@@H](CC(C)C)C(=O)N[C@@H](CO)C(=O)N[C@H](C(=O)N[C@@H](CCC(=O)O)C(=O)NCC(=O)O)[C@@H](C)O)[C@@H](C)O [ANVQMTFLXLLSTEG] (H-ANVQMTFL[Cit]LLSTEG-OH)
2 | 1050 nM | – | – | IC50 [1, 3]: 6720 nM | CC[C@H](C)[C@H](NC(=O)[C@H](CCC(=O)O)NC(=O)[C@H](CC(=O)O)NC(=O)[C@H](CCC(N)=O)NC(=O)[C@H](CC(C)C)NC(=O)[C@H](CCCNC(N)=O)NC(=O)CNC(=O)[C@@H](NC(=O)[C@@H](NC(=O)[C@H](CC(=O)O)NC(=O)[C@H](CCC(N)=O)NC(=O)[C@H](Cc1ccc(O)cc1)NC(=O)[C@H](CC(N)=O)NC(=O)[C@H](C)N)[C@@H](C)O)[C@@H](C)CC)C(=O)N[C@@H](CCC(N)=O)C(=O)O [ANYQDTIGXLQDEIQ] (H-ANYQDTIG[Cit]LQDEIQ-OH)
3 | – | 12000 nM | 1340 nM | – | CC(C)C[C@H](NC(=O)[C@H](CCCNC(=N)N)NC(=O)[C@H](C)N)C(=O)N[C@@H](CC(=O)O)C(=O)N[C@@H](CC(C)C)C(=O)N[C@@H](CCC(=O)O)C(=O)N[C@@H](CCCNC(N)=O)C(=O)N[C@@H](CCCCN)C(=O)N[C@H](C(=O)N[C@@H](CCC(=O)O)C(=O)N[C@@H](CO)C(=O)N[C@@H](CC(C)C)C(=O)N[C@@H](CCC(N)=O)C(=O)N[C@@H](CCC(=O)O)C(=O)N[C@@H](CCC(=O)O)C(=O)O)C(C)C [ARLDLEXKVESLQEE] (H-ARLDLE[Cit]KVESLQEE-OH)
4 | – | 1630 nM | 12900 nM | – | CC(C)[C@H](NC(=O)[C@H](Cc1ccc(O)cc1)NC(=O)[C@H](CO)NC(=O)[C@H](CCCNC(N)=O)NC(=O)[C@H](CO)NC(=O)[C@H](CO)NC(=O)[C@H](CO)NC(=O)[C@@H]1CCCN1C(=O)[C@H](CCCNC(=N)N)NC(=O)[C@H](CO)NC(=O)[C@H](C)N)C(=O)N[C@H](C(=O)N[C@H](C(=O)N[C@@H](CO)C(=O)N[C@H](C(=O)O)[C@@H](C)O)[C@@H](C)O)[C@@H](C)O [ASRPSSSXSYVTTST] (H-ASRPSSS[Cit]SYVTTST-OH)
5 | – | 757 nM | 5560 nM | – | CC(C)[C@H](NC(=O)[C@H](Cc1ccc(O)cc1)NC(=O)[C@H](CO)NC(=O)[C@H](CCCNC(=N)N)NC(=O)[C@H](CO)NC(=O)[C@H](CO)NC(=O)[C@H](CO)NC(=O)[C@@H]1CCCN1C(=O)[C@H](CCCNC(N)=O)NC(=O)[C@H](CO)NC(=O)[C@H](C)N)C(=O)N[C@H](C(=O)N[C@H](C(=O)N[C@@H](CO)C(=O)N[C@H](C(=O)O)[C@@H](C)O)[C@@H](C)O)[C@@H](C)O [ASXPSSSRSYVTTST] (H-AS[Cit]PSSSRSYVTTST-OH)
6 | > 40000 nM | – | – | IC50 [1, 3]: > 40000 nM; DRB1*04:01 binding capacity, WT/cit ratio [1, 7]: 1.0; DRB1*01:01 binding capacity, WT/cit ratio [2, 7]: 0.7 | C[C@H](N)C(=O)N[C@@H](CCCNC(N)=O)C(=O)NCC(=O)N[C@@H](C)C(=O)N[C@@H](CCC(N)=O)C(=O)NCC(=O)N1CCC[C@H]1C(=O)N1CCC[C@H]1C(=O)NCC(=O)N[C@@H](C)C(=O)N[C@H](C(=O)NCC(=O)N[C@@H](Cc1ccccc1)C(=O)N1CCC[C@H]1C(=O)NCC(=O)O)[C@@H](C)O [AXGAQGPPGATGFPG] (H-A[Cit]GAQGPPGATGFPG-OH; N-terminus and C-terminus assumed)
7 | – | 9150 nM | 5290 nM | – | CC(C)C[C@H](NC(=O)[C@H](CCCNC(N)=O)NC(=O)[C@H](C)N)C(=O)N[C@@H](CC(=O)O)C(=O)N[C@@H](CC(C)C)C(=O)N[C@@H](CCC(=O)O)C(=O)N[C@@H](CCCNC(=N)N)C(=O)N[C@@H](CCCCN)C(=O)N[C@H](C(=O)N[C@@H](CCC(=O)O)C(=O)N[C@@H](CO)C(=O)N[C@@H](CC(C)C)C(=O)N[C@@H](CCC(N)=O)C(=O)N[C@@H](CCC(=O)O)C(=O)N[C@@H](CCC(=O)O)C(=O)O)C(C)C [AXLDLERKVESLQEE] (H-A[Cit]LDLERKVESLQEE-OH)
8 | 28 nM | – | – | – | CC(C)C[C@H](NC(=O)CNC(=O)[C@H](CCCNC(=N)N)NC(=O)[C@@H](N)CCC(=O)O)C(=O)N[C@@H](CCCCN)C(=O)NCC(=O)N[C@@H](Cc1c[nH]cn1)C(=O)N[C@@H](CCCNC(N)=O)C(=O)NCC(=O)N[C@@H](Cc1ccccc1)C(=O)N[C@H](C(=O)NCC(=O)N[C@@H](CC(C)C)C(=O)N[C@@H](CCC(N)=O)C(=O)NCC(=O)O)[C@@H](C)O [ERGLKGHXGFTGLQG] (H-ERGLKGH[Cit]GFTGLQG-OH)
